Results from patent publication US11186606B2, “Compositions and methods of modulating the immune response by activating alpha protein kinase 1” (Shanghai Yao Yuan Biotechnology Co., Ltd., priority 2017, dated 2021).

Columns and labels:
TLR-9 = target: T1, TLR-9 (Homo sapiens, UniProt Q9NR96); conditions: US 20100016250 by Nagata et al.; cited from earlier work
T1 sequence (Q9NR96 26-1032): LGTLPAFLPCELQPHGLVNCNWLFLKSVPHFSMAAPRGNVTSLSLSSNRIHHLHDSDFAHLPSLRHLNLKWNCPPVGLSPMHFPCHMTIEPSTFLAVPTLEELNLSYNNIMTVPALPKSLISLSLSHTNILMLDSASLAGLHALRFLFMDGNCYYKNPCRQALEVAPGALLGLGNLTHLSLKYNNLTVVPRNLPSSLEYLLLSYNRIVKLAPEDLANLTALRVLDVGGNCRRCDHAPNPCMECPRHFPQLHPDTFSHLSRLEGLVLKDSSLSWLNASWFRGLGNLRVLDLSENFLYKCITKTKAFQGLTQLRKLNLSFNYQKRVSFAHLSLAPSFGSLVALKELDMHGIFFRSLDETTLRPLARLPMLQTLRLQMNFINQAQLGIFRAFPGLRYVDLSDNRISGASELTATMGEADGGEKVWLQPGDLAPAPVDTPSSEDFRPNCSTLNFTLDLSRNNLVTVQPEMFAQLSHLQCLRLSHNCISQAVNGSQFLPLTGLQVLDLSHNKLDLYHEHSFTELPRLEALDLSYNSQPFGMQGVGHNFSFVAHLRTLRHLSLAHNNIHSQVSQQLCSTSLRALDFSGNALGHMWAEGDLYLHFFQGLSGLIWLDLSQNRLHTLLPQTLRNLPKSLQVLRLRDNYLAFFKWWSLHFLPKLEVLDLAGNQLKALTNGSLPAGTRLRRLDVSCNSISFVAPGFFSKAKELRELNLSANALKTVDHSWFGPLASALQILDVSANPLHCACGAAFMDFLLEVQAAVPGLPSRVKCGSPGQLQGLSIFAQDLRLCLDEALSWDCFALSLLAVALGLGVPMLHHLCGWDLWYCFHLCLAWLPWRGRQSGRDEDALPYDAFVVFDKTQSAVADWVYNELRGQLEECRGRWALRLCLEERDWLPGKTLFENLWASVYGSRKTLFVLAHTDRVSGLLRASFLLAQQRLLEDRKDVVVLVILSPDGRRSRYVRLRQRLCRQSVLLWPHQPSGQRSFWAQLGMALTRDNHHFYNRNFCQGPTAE

CT26 cells = test: mRNA expression in CT26 tumor tissue after intratumoral injection (qPCR); format: in vivo, BALB/c mice; conditions: 4 hours post intratumoral injection, 2.5 μg, 250 ng, 50 ng
Protocol: We next asked whether H1b-ADP caused an increase in pro-inflammatory cytokines within the tumor. Tumor cells (2×10^5 per 100 μL CT26 cells) were inoculated subcutaneously into the right flank of BALB/c mice. 2.5 μg (n=2), 250 ng (n=2), 50 ng (n=2) of H1b-ADP or control (n=2) was intratumorally injected (20 uL) at day 7 post inoculation. 4 hours post-injection, tumor issues were dissected and harvested. Total RNA was isolated (TRIzol™, ThermoFisher) and cDNA was synthesized (PrimeScript™ RT reagent Kit, Takara) and amplified (AceQ™ qPCR SYBR™ Green Master Mix, Vazyme Biotech using a QuantStudio™ 7 Flex Real-Time PCR Systems (ThermoFisher) according to manufacturers' protocols.

ALPK1 [1] = target: T2, ALPK1 (Homo sapiens, UniProt Q96QP1); test: Thermal shift assay (SYPRO Orange) for binding to ALPK1; conditions: ALPK1 7 uM
Text: The thermal shift assay is widely used to determine the binding of a molecule to a protein of interest. The assay is based on the increase in thermal energy required for denaturation of a protein where another molecule is bound to the protein. SYPRO Orange is a fluorescent compound used in the detection of thermal shift. SYPRO Orange binds to hydrophobic surfaces of the protein, and water strongly quenches its fluorescence. When the protein unfolds, the exposed hydrophobic surfaces bind the dye, resulting in an increase in fluorescence. When another molecule is bound to the protein, an increase in the temperature required for unfolding of the protein is observed.
This assay system was used to determine whether or not chemically synthesized HBP, HMP-1bP, and H1b-ADP directly bind to ALPK1. […] Only H1b-ADP induced a shift of more than 1 degree, at each of the three highest concentrations tested, 5 uM, 25 uM, and 125 uM.

[2] = system: mouse bone marrow-derived macrophages; test: Cxcl1 mRNA expression in mouse bone marrow-derived macrophages (qPCR); format: cell-based; conditions: 0.4 nM or 2 nM, 2.5 hours
Protocol: In these experiments, mouse bone marrow-derived macrophages were treated with 0.4 nM or 2 nM H1b-ADP for 2.5 hours and harvested for mRNA expression analysis of Cxcl1 by qPCR. […] Accordingly, very low doses of H1b-ADP, or an agonist thereof, may be used to enhance or potentiate an immune response in a local tissue.

ALPK1 [3] = target: T2, ALPK1; test: IL8 secretion in HEK293 cells (IL8 ELISA) as indicator of ALPK1 activation; conditions: cells cultured with fetal bovine, human or mouse serum
Protocol: We pre-mixed H1b-ADP with phosphatase inhibitor sodium orthovanadate (Na3VO4) before incubation with FBS.
In these experiments, serial dilutions of the compounds were added to the tissue culture media of HEK293 cells with (FIG. 27B, FIG. 28B, FIG. 29B) or without (FIG. 26, FIG. 27A, FIG. 28A, FIG. 29A) 10% FBS, as indicated in the figures. After 4 hours, the cell supernatant was collected and analyzed for IL8 concentration using IL8 ELISA (BD) as an indicator of ALPK1 activation.

ALPK1 [4] = target: T2, ALPK1; test: Cell-free kinase assay of ALPK1-dependent phosphorylation of IκB; format: biochemical; conditions: 2 nM ALPK1, with or without ATP, 1 hour
Protocol: We next tested whether H1b-ADP-induced autophosphorylation of ALPK1 was effective to activate NFκB using phosphorylation of IκB as a marker for this activity. Phosphorylation assays were performed according to standard protocols and phosphorylated protein was detected by gel electrophoresis and Western blotting using an antibody that detects phosphorylated IκB. Briefly, assays were performed in a 20 μl volume at 25° C. in assay buffer (25 mM HEPES pH 7.5, 50 mM KCl, 0.1 mM EDTA, 0.1 mM EGTA, 2 mM DTT, 1.5 mM CaCl2, 10 mM MgCl2) containing 2 nM ALPK1 and H1b-ADP […] with or without ATP, or either ALPK1 alone or H1b-ADP alone, both in the presence of ATP. After 1 hour of incubation, the reaction was loaded to denaturing gel for protein electrophoresis and Western was performed to detect phosphorylation of IkB using p-IkB antibody (Abcam).

T2 sequence (Q96QP1 whole entry): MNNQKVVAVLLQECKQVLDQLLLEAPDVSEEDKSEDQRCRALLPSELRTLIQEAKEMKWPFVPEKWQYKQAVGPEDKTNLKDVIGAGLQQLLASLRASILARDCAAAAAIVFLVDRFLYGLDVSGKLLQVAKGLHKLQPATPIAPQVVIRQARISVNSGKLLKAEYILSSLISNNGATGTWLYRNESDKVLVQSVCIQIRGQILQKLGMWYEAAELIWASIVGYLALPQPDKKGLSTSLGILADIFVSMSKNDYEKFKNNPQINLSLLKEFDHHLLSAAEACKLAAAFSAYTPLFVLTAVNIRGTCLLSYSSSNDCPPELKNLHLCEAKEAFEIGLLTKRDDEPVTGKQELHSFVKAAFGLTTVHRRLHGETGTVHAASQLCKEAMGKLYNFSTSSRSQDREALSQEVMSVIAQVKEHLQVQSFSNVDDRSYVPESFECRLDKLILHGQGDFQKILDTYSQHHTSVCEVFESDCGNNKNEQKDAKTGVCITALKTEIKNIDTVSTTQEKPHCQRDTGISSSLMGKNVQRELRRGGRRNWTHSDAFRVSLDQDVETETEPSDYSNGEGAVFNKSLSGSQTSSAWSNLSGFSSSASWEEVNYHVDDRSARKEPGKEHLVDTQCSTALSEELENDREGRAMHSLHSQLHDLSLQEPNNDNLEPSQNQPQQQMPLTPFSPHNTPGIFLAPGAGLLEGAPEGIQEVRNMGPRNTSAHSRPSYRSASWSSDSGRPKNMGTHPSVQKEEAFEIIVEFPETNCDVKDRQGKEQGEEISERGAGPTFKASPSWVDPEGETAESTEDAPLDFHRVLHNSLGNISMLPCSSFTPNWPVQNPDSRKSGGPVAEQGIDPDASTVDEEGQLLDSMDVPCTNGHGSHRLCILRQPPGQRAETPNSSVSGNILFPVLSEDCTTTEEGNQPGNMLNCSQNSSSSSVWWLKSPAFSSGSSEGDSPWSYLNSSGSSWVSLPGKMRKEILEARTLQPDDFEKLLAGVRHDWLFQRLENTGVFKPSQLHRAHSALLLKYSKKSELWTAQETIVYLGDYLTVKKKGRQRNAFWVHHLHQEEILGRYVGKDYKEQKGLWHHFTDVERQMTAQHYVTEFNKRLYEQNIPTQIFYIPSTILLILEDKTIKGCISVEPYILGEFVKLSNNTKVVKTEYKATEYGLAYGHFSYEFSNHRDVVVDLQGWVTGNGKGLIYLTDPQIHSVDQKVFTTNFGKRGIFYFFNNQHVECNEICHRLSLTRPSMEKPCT

thermal shift / direct binding to ALPK1 (ALPK1 [1]; 1 uM, 5 uM, 25 uM, or 125 uM): able to directly bind to ALPK1
thermal shift of ALPK1 (ALPK1 [1]; at 5 uM, 25 uM, and 125 uM): more than 1 degree
activity to activate ALPK1 in HEK293 cells (IL8 secretion) (ALPK1 [3]): greatly declined
SMILES: Nc1ncnc2c1ncn2[C@@H]1O[C@H](COP(=O)(O)OP(=O)(O)O[C@@H]2O[C@H]([C@H](O)CO)[C@@H](O)[C@H](O)[C@@H]2O)[C@@H](O)[C@H]1O [Compound H1b-ADP, D-glycero-D-manno-heptose-1β-ADP]
TLR-9 agonist activity (TLR-9): TLR-9 agonist
PD-1 and PD-L1 expression (CT26 cells): increased
mRNA expression of cytotoxic T cell marker CD8, T-helper cell marker CD4, regulatory T cell marker Foxp3 and Th1 cell marker T-bet (CT26 cells): increased
mRNA expression of inflammatory cytokine IL-1b, Tnfa, Ifn gamma, and IL-6, and chemokine Cxcl1 (CT26 cells): increased
Cxcl1 mRNA expression, fold change over non-treated control [2]: dose-dependent response
IkB phosphorylation (ALPK1 [4]): detected only in the presence of both ALPK1 and H1b-ADP in the presence of ATP
